Values quoted from earlier work, collected in article PMC5348030 (Nature chemical biology, 2016).

Tested on: HIV integrase

residence time on its target: 4.8 min
SMILES: Cc1nnc(C(=O)NC(C)(C)c2nc(C(=O)NCc3ccc(F)cc3)c(O)c(=O)n2C)o1 [raltegravir]
